Assay results published in patent US4496551A (priority 1983, dated 1985).

Experiments:
Assay type in all cases: in vivo
Phytophthora infestans = test: whole plant or invertebrate; conditions: Phytophthora infestans, in Solanum lycopersicum, 168 h, read-out: % Control of Tomato Late Blight
Rhizoctonia solani = test: rice sheath blight control on rice seedlings; conditions: Rhizoctonia solani, 168 h, 7 days
Experimental: Several compounds of the previous examples were again dissolved in acetone in an amount equal to 6% of the final volume and then suspended at a concentration of 100 ppm in purified water containing 250 ppm of the surfactant TREM 014 (polyhydric alcohol esters). This suspension was sprayed to the point of run-off on rice seedlings. The following day, the plants were inoculated with a mixture of bran and the mycelium of Rhizoctonia solani, causal agent of sheath blight of rice, and incubated in a growth room for 7 days. Disease ratings were then made. Treated plants from successful treatments had little sheath blight in contrast to untreated plants which were covered with sheath blight.

cucumber seedlings = test: phytotoxicity on cucumber seedlings; parameters: key: G: growth reduction; H: hormonal effects; conditions: 100 ppm
Cercospora arachidicola = test: peanut early leafspot control on peanut seedlings; conditions: Mycosphaerella arachidis, 336 h
Experimental: Compounds of the previous examples were again dissolved in acetone in an amount equal to 6% of the final volume and then suspended at a concentration of 100 ppm in purified water containing 250 ppm of the surfactant TREM 014 (polyhydric alcohol esters). This suspension was sprayed to the point of run-off on peanut seedlings. The following day, the plants were inoculated with a spore suspension of Cercospora arachidicola, causal agent of peanut early leafspot, and incubated in a saturated humidity chamber at 27° for 24 hours and then in a growth room for an additional 14 days, when disease ratings were made. Treated plants from successful treatments had few or no leafspots while the untreated plants had numerous leafspots on each leaf.

Venturia inaequalis = test: apple scab control on apple seedlings; conditions: Venturia inaequalis; 100 ppm
Experimental: Compounds of this invention were dissolved in acetone in an amount equal to 6% of the final volume and then suspended at a concentration of 100 ppm in purified water containing 250 ppm of the surfactant TREM 014 (polyhydric alcohol esters). This suspension was sprayed to the point of run-off on apple seedlings. The following day, the plants were inoculated with a spore suspension of the fungus Venturia inaequalis, causal agent of apple scab, and incubated in a saturated humidity chamber at 20° for 24 hours and then in a growth room for an additional 10-12 days. Treated plants from successful treatments had few or no apple scab lesions when compared to untreated plants which were covered with scab lesions.

Erysiphe cichoracearum = test: cucumber powdery mildew control on cucumber seedlings; conditions: Golovinomyces cichoracearum, 168 h, 7 days
Experimental: (§1) Compounds of the previous examples were again dissolved in acetone in an amount equal to 6% of the final volume and then suspended at a concentration of 100 ppm in purified water containing 250 ppm of the surfactant TREM 014 (polyhydric alcohol esters). This suspension was sprayed to the point of run-off on cucumber seedlings. The following day, the plants were inoculated with a spore suspension of the fungus Erysiphe cichoracearum, causal agent of cucumber powdery mildew, and incubated in a growth room for 7 days. Disease ratings were then made. Treated plants from successful treatments had little or no powdery mildew in contrast to untreated plants which were covered with powdery mildew.

Helminthosporium maydis = test: southern corn leaf blight control on corn seedlings; conditions: Bipolaris maydis, 168 h
Experimental: Compounds of the previous example were again dissolved in acetone in an amount equal to 6% of the final volume and then suspended at a concentration of 100 ppm in purified water containing 250 ppm of the surfactant TREM 014 (polyhydric alcohol esters). This suspension was sprayed to the point of run-off on corn seedlings. The following day, the plants were inoculated with a spore suspension of Helminthosporium maydis, causal agent of southern corn leaf blight, and incubated in a saturated humidity chamber at 20° for 24 hours and then in a growth room for an additional 7 days, when disease ratings were made. Treated plants from successful treatments had few lesions while the untreated plants had numerous lesions on each leaf.

Pythium aphanadermatum [1] = test: Pythium control on coated cotton seeds; conditions: 168 h; for pest or weed control at 2000 mg/kg: 2 gm/kg seed, 1 week
From the text: Several compounds of the previous examples were incorporated into a proprietary formulation and used to coat cotton seeds at a rate of 2 gm/kg seed. After being thoroughly coated, the seeds were allowed to air dry at room temperature. The cotton seeds were then planted into soil amended with the fungus Pythium aphanadermatum, sand, and corn meal at a rate sufficient to kill most untreated seeds. The seeds were held at room temperature for 1 week, after which time disease ratings were made.

Pythium aphanadermatum [2] = test: Pythium control on coated corn seeds; conditions: 504 h, 2 gm/kg seed, 49° F. 2 weeks then 70° F. 1 week
Experimental: Several compounds of the previous examples were incorporated into a proprietary formulation and used to coat corn seeds at a rate of 2 gm/kg seed. After being thoroughly coated, the seeds were allowed to air dry at room temperature. The seeds were then planted into soil amended with a mixture of the fungus Pythium aphanadermatum, sand, and corn meal at a rate sufficient to kill most untreated seeds. The seeds were held at 49° F. for 2 weeks and then at 70° F. for 1 additional week. After this time disease ratings were made.

Pyricularia oryzae = test: whole plant or invertebrate; conditions: 168 h, read-out: % Control of Rice Blast
[3] = tested on: Puccinia recondita var. tritici; test: wheat leaf rust control on wheat seedlings; conditions: 100 ppm, sprayed day before inoculation
Experimental: Compounds of this invention were dissolved in acetone in an amount equal to 6% of the final volume and then suspended at a concentration of 100 ppm in purified water containing 250 ppm of the surfactant TREM 014 (polyhydric alcohol esters). This suspension was sprayed to the point of run-off on wheat seedlings. The following day, the plants were inoculated with a spore suspension of Puccinia recondita var. tritici, causal agent of wheat leaf rust, and incubated in a saturated humidity chamber at 20° for 24 hours and then in a growth room for an additional 7 days, when disease ratings were made. Treated plants from successful treatments had few or no rust pustules while the untreated plants had numerous rust pustules on each leaf.

Erysiphe graminis = test: barley powdery mildew control on barley seedlings; conditions: Blumeria graminis, 168 h; 100 ppm, 7 days
Experimental: as §1, with “Several compounds” for “Compounds”, “barley” for “cucumber”, “graminis,” for “cichoracearum,”, “plants” for “plants from successful treatments”

SMILES | pest or weed control at 100 ppm (Phytophthora infestans) [%] | pest or weed control at 100 ppm (Rhizoctonia solani) [%] | Phytotoxicity (growth reduction or hormonal effects) (cucumber seedlings) | pest or weed control at 100 ppm (Cercospora arachidicola) [%] | pest or weed control at 100 ppm (Venturia inaequalis) [%] | pest or weed control at 100 ppm (Erysiphe cichoracearum) [%] | pest or weed control at 100 ppm (Helminthosporium maydis) [%] | pest or weed control at 2000 mg/kg (Pythium aphanadermatum [1]) [%] | pest or weed control at 2000 mg/kg (Pythium aphanadermatum [2]) [%] | pest or weed control at 100 ppm (Pyricularia oryzae) [%] | pest or weed control at 100 ppm [3] [%] | pest or weed control at 100 ppm (Erysiphe graminis) [%] | pest or weed control at 500 mg/kg (Pythium aphanadermatum [1]; 0.5 gm/kg seed) [%]
Cc1ccc([Si](C)(C)Cn2ccnc2)cc1 [(1H-Imidazol-1-ylmethyl)dimethyl(4-methylphenyl)silane] | 0 | 0 | G | 0 | 0 | 100 | 0 | 0 | 30 | 0 | 0 |  | 
C[Si](C)(Cn1ccnc1)c1cc(Cl)cc(Cl)c1 [(3,5-Dichlorophenyl)dimethyl(1H-imidazol-1-ylmethyl)silane] | 0 | 90 | G | 0 | 50 | 100 | 0 |  |  | 0 | 0 |  | 
CCCC[Si](C)(Cn1ccnc1)c1ccc(F)cc1 (stereo not shown) [Butyl(4-fluorophenyl)(1H-imidazol-1-ylmethyl)methylsilane] | 0 | 80 |  | 0 | 80 | 100 | 0 | 0 | 0 | 100 | 0 |  | 
C[Si](Cn1ccnc1)(c1ccc(Cl)cc1)c1ccc(Cl)cc1 [bis(4-Chlorophenyl)(1H-imidazol-1-ylmethyl)methylsilane] | 0 | 0 |  | 0 | 0 | 100 | 60 |  |  | 0 | 0 | 100 | 
C[Si](C)(Cn1ccnc1)c1ccc(OC(F)(F)F)cc1 [Dimethyl(1H-imidazol-1-ylmethyl)(4-trifluoromethoxyphenyl)silane] | 0 | 0 | G | 90 | 50 | 100 | 0 |  |  | 90 | 100 |  | 
C[Si](C)(Cn1ccnc1)c1ccccc1C(F)(F)F [(1H-Imidazol-1-ylmethyl)dimethyl(2-trifluoromethylphenyl)silane] | 0 | 80 | G | 0 | 0 | 100 | 90 |  |  | 0 | 0 |  | 
C[Si](C)(Cn1ccnc1)c1cccc2ccccc12 [(1H-Imidazol-1-ylmethyl)dimethyl(1-naphthalenyl)silane] | 0 | 0 |  | 0 | 40 | 100 | 0 |  | 27 | 0 | 0 | 0 | 
C[Si](C)(Cn1ccnc1)c1cccc(C(F)(F)F)c1 [Dimethyl(1H-imidazol-1-ylmethyl)(3-trifluoromethylphenyl)silane] | 70 | 0 |  | 50 | 0 | 80 | 0 | 0 | 0 | 0 | 0 |  | 
CCCC[Si](C)(Cn1ccnc1)c1ccc(-c2ccccc2)cc1 (stereo not shown) [(1,1'-Biphenyl-4-yl)butyl(1H-imidazol-1-ylmethyl)methylsilane] | 0 | 90 |  | 90 | 100 | 100 | 0 | 0 | 0 | 90 | 100 |  | 
C[Si](C)(Cn1ccnc1)c1ccc(Cl)cc1 [(4-Chlorophenyl)dimethyl(1H-imidazol-1-ylmethyl)silane] | 0 | 0 |  | 0 | 0 | 100 | 0 |  | 25 | 0 | 50 |  | 18
COc1ccccc1[Si](C)(C)Cn1ccnc1 [(1H-Imidazol-1-ylmethyl)(2-methoxyphenyl)dimethylsilane] | 0 | 90 | G | 0 | 60 | 100 | 0 |  |  | 0 | 0 |  | 
C[Si](C)(Cn1ccnc1)c1ccccc1Cl [(2-Chlorophenyl)(1H-imidazol-1-ylmethyl)dimethylsilane] | 0 | 0 |  | 80 | 90 | 100 | 0 | 0 |  | 0 | 0 |  | 
